Measured values from the METLIN SMRT retention time set (Domingo-Almenara et al. 2019).

Test: gradient 5% acetonitrile 3 min, to 50% in 2 min, to 85% in 15 min, held 3 min, 100 µL/min
Conditions: column: Zorbax Extend-C18 2.1 x 50 mm; eluents: water / acetonitrile, 0.1% formic acid
Procedure, shortened: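 The mobile phases were water and acetonitrile, each with 0.1% formic acid, pumped at 100 μL/min through a Zorbax Extend-C18 column (2.1 × 50 mm, 1.8 μm). Pure standards were injected as mixtures of ~100 molecules and detected by a quadrupole time-of-flight mass spectrometer in positive and negative ionization mode. Retention time came from computationally picked adduct peaks, each inspected by hand.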

Compound	RP-LC retention time
CCc1noc(NC(C)=O)c1-c1ccc(OC)c(S(=O)(=O)Nc2ccc(OC)cc2OC)c1	777 s
COc1cc(-c2noc(CCn3nc(-c4ccc(F)cc4)ccc3=O)n2)cc(OC)c1OC	887 s
CCCCNC(=O)CCc1[nH]c(C)c(C(=O)OCC)c1C	762 s
O=C(NCC1COc2ccccc2O1)C(=O)c1c[nH]c2ccccc12 (stereo not given)	920 s
O=C(Cc1nc(-c2ccccn2)n[nH]1)Nc1ccc(Cl)cc1	666 s
COc1ccc(NC(=O)N2[C@H]3CC[C@@H]2c2cnc(-c4ccc(F)cc4)nc2C3)c(OC)c1	961 s
CCOc1ccc2nc(NC(=O)c3cc(=O)c(OCc4ccccc4)cn3C)sc2c1	741 s
CCNc1nc(NC(C)(C)C)nc(-n2cnc(SC)n2)n1	873 s
CC(C)(C)NC(=O)c1ccc(C(=O)NC(C)(C)C)cc1	840 s
c1ccc(-c2nnc(-c3ccc(-n4ccnc4)nc3)o2)cc1	639 s
c1ccc([C@@H]2NCCO[C@H]2COc2ccccn2)cc1	595 s
Cc1ccc(N2C(=O)CSC2c2ccccc2)cc1 (stereo not given)	843 s
COCCCNC(=O)C(C)n1c(=O)c(C(F)(F)F)nc2ccccc21 (stereo not given)	854 s
CCC(C)NS(=O)(=O)c1cc(-c2nnc(-c3ccc(OC)c(OC)c3)o2)ccc1C (stereo not given)	938 s
COCC(=O)Nc1cnc(-c2ccc(OC)cc2)nc1	724 s
COc1ccc(-c2csc3c(=O)n(Cc4ccccn4)cnc23)cc1	815 s
COc1ccc(C2CC(=O)c3c(C)nn(-c4nc5ccccc5[nH]4)c3C2)c(OC)c1 (stereo not given)	1020 s
CCOC(=O)C(=O)Nc1ccc(SCc2nnc(-c3ccccc3)o2)cc1	881 s
O=C(NCCc1c[nH]c2ccc(Cl)cc12)c1sc2ncccc2c1-n1cccc1	1060 s
COc1cc(C)c2c(c1C=O)Oc1c(c(C)c(O)c3c1C(O)OC3=O)OC2=O (stereo not given)	840 s
O=C(NC1CCN(c2ccccc2)C1=O)c1ccc(Br)o1 (stereo not given)	773 s
Cc1nc2ccc(N)nc2nc1C	594 s
COc1cccc(CCC(=O)NC(C)C(=O)Nc2nc3ccccc3[nH]2)c1 (stereo not given)	660 s
Cc1ccc(-c2cc3c4nnc(SCC(=O)Nc5ccc(F)cc5Cl)n4ccn3n2)cc1C	1010 s
CCc1nc(OCC(=O)Nc2ccc(C)cc2Br)c2ccccc2n1	895 s
Cc1sc(-c2nc(C(C)C)cs2)cc1S(=O)(=O)Nc1ccccc1F	1170 s
Clc1ccc(Cl)c(-c2ccc(CNCC3CCNCC3)o2)c1	574 s
O=C(Nc1cccc(OCc2nnc(-c3ccccc3)o2)c1)c1ccsc1	914 s

Second part, the compound after the results:

RP-LC retention time	Compound
802 s	Cc1ccc(Cl)cc1NC(=O)C1CCCN(c2nnc(C)c3c(C)n(-c4ccccc4)nc23)C1 (stereo not given)
611 s	CCCc1cc(N2CCN(C(=O)c3ccsc3)CC2)nc2nnc(C)n12
639 s	CCc1ccc(NC(=O)Cn2c(N)nc(CC)c(C)c2=O)cc1
722 s	CC1CN(C2CCCCC2)c2nc3c(c(=O)n(CCN4CCCCC4)c(=O)n3C)n2C1 (stereo not given)
644 s	Cn1nc(C(=O)N2CCCC(C(=O)NC3CC3)C2)c2c1CCN(C(=O)COc1ccccc1)C2 (stereo not given)
560 s	O=C(CCC1CCCN(c2cc(NC3CC3)ncn2)C1)NCc1cccnc1 (stereo not given)
638 s	COc1ccccc1-c1cnn2c(N3CCN(c4cccc(C)n4)CC3)cc(C)nc12
711 s	O=C1CCC(C(=O)N2CCC(c3c[nH]c4ccccc34)(c3c[nH]c4ccccc34)CC2)N1 (stereo not given)
732 s	Cc1c(Cl)cccc1S(=O)(=O)N1CCN(c2nc3ccncc3n(C)c2=O)CC1
800 s	COc1cccc(C(=O)N2CCc3c(c(-c4nc(C5CC5)no4)nn3C)C2)c1
821 s	COc1ccc(N2CCN(C(=O)C3CCCN(C(=O)c4cc5sccc5n4C)C3)CC2)cc1 (stereo not given)
796 s	Cc1ccccc1CN1CCc2nc(N3CCN(c4ccccc4F)CC3)ncc2C1
903 s	Cc1cc(N2CCC(NC(=O)NCc3cccc(F)c3)C2=O)ccc1F (stereo not given)
846 s	CCOc1ccccc1-n1ccn(Cc2nc(-c3ccc(OC)cc3)no2)c(=O)c1=O
588 s	Cc1cc(C(=O)CN2CCN(C)CC2)c(C)n1-c1cccc(C(F)(F)F)c1
738 s	Cc1ccc(Cl)cc1N(C)C(=O)Cn1ccc2c(=O)n(C)c(=O)n(C)c21
607 s	Cc1sc(-c2nnc(C(=O)N3CCCC3)o2)cc1S(=O)(=O)N1CCN(C)CC1
587 s	CC(=O)N1CCC2(CC1)CC(CC(=O)N(C)C)CCO2 (stereo not given)
879 s	O=C(CCc1nc2ccccc2n(CC(=O)NC2CCc3ccccc32)c1=O)NC1CCCCC1 (stereo not given)

RP-LC retention time	Compound
1080 s	Cc1cccc(-c2nc(-c3ccc(S(=O)(=O)N4CCOCC4)cc3)no2)c1
781 s	CN(C)C(=O)c1ccc2c(c1)N(CC(=O)NCCc1c[nH]c3ccccc13)C(=O)C1CCCCN21 (stereo not given)
879 s	Cc1ccc(NC(=O)C2CCCN(S(=O)(=O)c3cn(C(C)C)cn3)C2)cc1Cl (stereo not given)
865 s	CCS(=O)(=O)c1ccc2c(c1)N(Cc1nc(-c3ccccc3)no1)C(=O)CO2
618 s	O=C(NCc1ccccc1)N1CCCC(Cn2cnc3cccnc32)C1 (stereo not given)
703 s	CC1CCN(Cc2nc(Cn3ccn4nc(-c5ccc(F)cc5)cc4c3=O)no2)CC1
592 s	C=CCc1cc(OC)ccc1OCC(O)CN1CCN(C(=O)OCC)CC1 (stereo not given)
728 s	CSc1nnc(-c2nn(C)c3c2CN(C(=O)c2c(F)cccc2Cl)CC3)n1C
769 s	O=C(c1ccc(OCC2CCCN(C(=O)c3ccc(F)cc3)C2)cc1)N1CCOCC1 (stereo not given)
907 s	CCOC(=O)c1cc2n(n1)CC(C)(C(=O)NC1CCCC1)N(Cc1cccc(F)c1)C2=O (stereo not given)
786 s	CC1=C(c2cccc(Cl)c2)S(=O)(=O)N=C1N1CCCN(C(=O)C(C)C)CC1
764 s	CC(C)N(C(=O)Cn1c(C2CC(=O)N(Cc3ccccc3)C2)nc2ccccc21)C(C)C (stereo not given)
610 s	COc1ccc(-c2noc(CN3N=NC4C(=O)N(c5cccc(F)c5)C(=O)C43)n2)c(OC)c1 (stereo not given)
854 s	COc1ccc(-c2nc3ncc4c(=O)n(CCc5ccc(OC)c(OC)c5)ccc4n3n2)cc1
749 s	CC(C)c1nnc(-c2cccnc2N2CCN(C(=O)c3ccc4[nH]ccc4c3)CC2)o1
846 s	O=S(=O)(c1ccc(-c2nnc(C3CCC3)o2)o1)N1CCCC1
561 s	CC(C)C(=O)Nc1ccc2nc(N3CCN(CC(=O)N4CCCC4)CC3)cc(C(=O)O)c2c1
966 s	COc1ccccc1-c1nnc(-c2ccc(C)c(S(=O)(=O)N3CCCC3)c2)o1
